Where two headings read alike, the source gives them in different places.
How the values were obtained:
[1] = assay type: physicochemical
Protocol: The glass dishes or glass vials were then placed in different environments of the constant temperature and humidity chamber, with conditions including: illumination: 4500±500 Lux (open); high temperature: 60° C.

[2] = Solubility test of salts in pH buffers, water and physiological solutions; assay type: physicochemical
Protocol: The solubility of dominant salts in different pH buffers, water, and physiological solutions was determined. The specific steps for solubility determination are as follows: […] The vials were sealed, transferred to a magnetic stirrer, and maintained at 25° C. with a stirring rate of 500 rpm for 24 hours. The dissolution status in sample vials was recorded during the test. After 24 hours, approximately 1 mL of the suspension was filtered, and the filtrate was collected for solubility test via HPLC analysis. The pH value of the filtrate sample was measured using a pH meter.

DVS test of salt forms = assay type: physicochemical
Text: 1. The instrument sample pan was first tared and balanced.
3. The program was run: starting from 0% humidity as the initial point, slowly increasing to 90%, then returning to 0% to complete the cycle 1; rising again to 90% and decreasing back to 0% to conclude, completing the cycle 2 (as shown in FIGS. 35-36).

[3] = High Relative Humidity (RH = 90 ± 5%, Open, 25° C.), 5 Days
[4] = High Relative Humidity (RH = 90 ± 5%, Open, 25° C.), 11 Days
[5] = High Temperature (60° C., Sealed), 5 Days
[6] = High Temperature (60° C., Sealed), 11 Days
[7] = Strong Illumination (Open), 5 Days
[8] = Strong Illumination (Open), 11 Days

For `CC(C)(O)CCn1cc2cc(NC(=O)c3coc(-c4ccnc(C(F)(F)F)c4)n3)c(C(C)(C)O)cc2n1.O=S(=O)(O)O` [crystal form A of sulfate salt], the “Color Change” value [1, 3] was “Turn Yellow”, the Purity [1, 3] was 99.08% and the “Salt Type” value [1, 3] was “No Change”. The Purity [1, 4] was 99.14%, the “Salt Type” value [1, 4] was “No Change” and the “Color Change” value [1, 5] was “Turn Yellow”. For the same compound, the Purity [1, 5] was 99.74%, the “Salt Type” value [1, 5] was “No Change” and the “Color Change” value [1, 6] was “Turn Yellow”. The Purity [1, 6] was 98.39%, the “Salt Type” value [1, 6] was “No Change” and the Purity ([1]; Initial State) was 99.12%. The “Color Change” value ([1]; Initial State (colour)) was “White”, the “Color Change” value [1, 7] was “No Change” and the Purity [1, 7] was 99.35%. For the same compound, the “Salt Type” value [1, 7] was “No Change”, the “Color Change” value [1, 8] was “No Change” and the Purity [1, 8] was 99.26%. For the same compound, the “Salt Type” value [1, 8] was “No Change”, the “Solubility at 25° C.” value ([2]; Buffer pH = 1.0, 24 hours) was 179.03 µg/mL and the “Solubility at 25° C.” value ([2]; Buffer pH = 6.8, 24 hours) was “<LOD”. The “Solubility at 25° C.” value ([2]; FaSSIF (pH = 6.5), 24 hours) was “<LOD”, the “Solubility at 25° C.” value ([2]; FeSSIF (pH = 5.0), 24 hours) was 19.45 µg/mL and the “Solubility at 25° C.” value ([2]; SGF (pH = 1.2), 24 hours) was 2.88 µg/mL. The “Solubility at 25° C.” value ([2]; Water, 24 hours) was 1.34 µg/mL.

With `CC(C)(O)CCn1cc2cc(NC(=O)c3coc(-c4ccnc(C(F)(F)F)c4)n3)c(C(C)(C)O)cc2n1.O=P(O)(O)O` [crystal form A of phosphate salt] the “Color Change” value [1, 3] was “No Change”, the Purity [1, 3] was 99.66% and the “Salt Type” value [1, 3] was “No Change”. The “Color Change” value [1, 4] was “No Change”, the Purity [1, 4] was 99.33% and the “Salt Type” value [1, 4] was “No Change”. The “Color Change” value [1, 5] was “Turn Yellow”, the Purity [1, 5] was 99.49% and the “Salt Type” value [1, 5] was “No Change”. For the same compound, the “Color Change” value [1, 6] was “Turn Yellow”, the Purity [1, 6] was 99.49% and the “Salt Type” value [1, 6] was “No Change”. The Purity ([1]; Initial State) was 99.18%, the “Color Change” value ([1]; Initial State (colour)) was “White” and the “Color Change” value [1, 7] was “No Change”. The Purity [1, 7] was 99.67%, the “Salt Type” value [1, 7] was “No Change” and the “Color Change” value [1, 8] was “No Change”. For the same compound, the Purity [1, 8] was 99.01%, the “Salt Type” value [1, 8] was “No Change” and the “Solubility at 25° C.” value ([2]; Buffer pH = 6.8, 24 hours) was “<LOD”. The “Solubility at 25° C.” value ([2]; FaSSIF (pH = 6.5), 24 hours) was “<LOD”, the “Solubility at 25° C.” value ([2]; FeSSIF (pH = 5.0), 24 hours) was “<LOD” and the “Solubility at 25° C.” value ([2]; SGF (pH = 1.2), 24 hours) was “<LOD”. For the same compound, the “Solubility at 25° C.” value ([2]; Water, 24 hours) was “<LOD”, the “Change of the sample before and after the DVS test” value (DVS test of salt forms) was “no changes are observed” and the “Hygroscopicity (DVS), in words” value (DVS test of salt forms; 0% to 90% humidity, two cycles) was “low hygroscopicity”. The “Water Sorption at 90% Relative Humidity” value (DVS test of salt forms; 90% Relative Humidity) was 0.80% Water Sorption at 90% Relative Humidity, the Desorption (DVS test of salt forms; cycle 1, 0% humidity) was −0.04% and the Sorption (DVS test of salt forms; cycle 1, 0% humidity) was 0.00%. It also gave a Desorption (DVS test of salt forms; cycle 1, 10% humidity) of −0.01%, a Sorption (DVS test of salt forms; cycle 1, 10% humidity) of 0.02% and a Desorption (DVS test of salt forms; cycle 1, 20% humidity) of 0.01%. The Sorption (DVS test of salt forms; cycle 1, 20% humidity) was 0.04%, the Desorption (DVS test of salt forms; cycle 1, 30% humidity) was 0.04% and the Sorption (DVS test of salt forms; cycle 1, 30% humidity) was 0.06%. For the same compound, the Desorption (DVS test of salt forms; cycle 1, 40% humidity) was 0.09%, the Sorption (DVS test of salt forms; cycle 1, 40% humidity) was 0.10% and the Desorption (DVS test of salt forms; cycle 1, 50% humidity) was 0.15%. The Sorption (DVS test of salt forms; cycle 1, 50% humidity) was 0.14%, the Desorption (DVS test of salt forms; cycle 1, 60% humidity) was 0.21% and the Sorption (DVS test of salt forms; cycle 1, 60% humidity) was 0.20%. The Desorption (DVS test of salt forms; cycle 1, 70% humidity) was 0.31%, the Sorption (DVS test of salt forms; cycle 1, 70% humidity) was 0.29% and the Desorption (DVS test of salt forms; cycle 1, 80% humidity) was 0.46%. It also gave a Sorption (DVS test of salt forms; cycle 1, 80% humidity) of 0.44%, a Desorption (DVS test of salt forms; cycle 1, 90% humidity) of 0.80% and a Sorption (DVS test of salt forms; cycle 1, 90% humidity) of 0.80%. The Desorption (DVS test of salt forms; cycle 2, 0% humidity) was −0.05%, the Sorption (DVS test of salt forms; cycle 2, 0% humidity) was −0.04% and the Desorption (DVS test of salt forms; cycle 2, 10% humidity) was −0.03%. It also gave a Sorption (DVS test of salt forms; cycle 2, 10% humidity) of −0.02%, a Desorption (DVS test of salt forms; cycle 2, 20% humidity) of 0.00% and a Sorption (DVS test of salt forms; cycle 2, 20% humidity) of 0.01%. The Desorption (DVS test of salt forms; cycle 2, 30% humidity) was 0.03%, the Sorption (DVS test of salt forms; cycle 2, 30% humidity) was 0.04% and the Desorption (DVS test of salt forms; cycle 2, 40% humidity) was 0.07%. It also gave a Sorption (DVS test of salt forms; cycle 2, 40% humidity) of 0.07%, a Desorption (DVS test of salt forms; cycle 2, 50% humidity) of 0.13% and a Sorption (DVS test of salt forms; cycle 2, 50% humidity) of 0.12%. It also gave a Desorption (DVS test of salt forms; cycle 2, 60% humidity) of 0.20%, a Sorption (DVS test of salt forms; cycle 2, 60% humidity) of 0.18% and a Desorption (DVS test of salt forms; cycle 2, 70% humidity) of 0.29%. The Sorption (DVS test of salt forms; cycle 2, 70% humidity) was 0.27%, the Desorption (DVS test of salt forms; cycle 2, 80% humidity) was 0.45% and the Sorption (DVS test of salt forms; cycle 2, 80% humidity) was 0.43%. The Desorption (DVS test of salt forms; cycle 2, 90% humidity) was 0.79% and the Sorption (DVS test of salt forms; cycle 2, 90% humidity) was 0.79%.

Reference: patent US20260008776A1 (HANGZHOU POLYMED BIOPHARMACEUTICALS, INC., priority 2023, published 2026)
